# Laboratory results taken from US20230272484A1, “METHODS OF PROGNOSING, DETERMINING TREATMENT COURSE AND TREATING MULTIPLE MYELOMA” (Yeda Research and Development Co. Ltd., priority 2020, published 2023).
# Tested on: ex-vivo cultured patient malignant plasma cells (PRMM patient Z01)
# Test: FACS apoptosis assay (DAPI and Annexin-V) on ex vivo cultured patient cells
# Format: cell-based, human
# Conditions: resistant PRMM patient Z01, DAPI and Annexin-V FACS
# Protocol: Finally, it was evaluated whether this synergistic effect is also relevant to PI resistant MM patients. For this end, the present inventors collected BM sample from a highly resistant PRMM patient (Z01, Methods) and sorted the cells for MARS-seq analysis, confirming the patient is also positive for the resistance signature 1 (FIGS. 9E-G). […] The present inventors evaluated the patient ex vivo response to these treatments by FACS analysis of apoptotic cells using DAPI and Annexin-V staining.
smiles,measurement,value
CC(C)C[C@H](NC(=O)[C@H](CCc1ccccc1)NC(=O)CN1CCOCC1)C(=O)N[C@@H](Cc1ccccc1)C(=O)N[C@@H](CC(C)C)C(=O)[C@@]1(C)CO1 [Carfilzomib],live cells,23.4%
